Experimental data from the supplement of paper PMC10307832.

Columns and labels:
Test in all cases: relative viability (nuclei count vs DMSO), 5 days (fraction); higher = more cells survive
HCC-827 = system: HCC-827
How it was run: (§1)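 Lung cancer cell lines, seeded in 1536-well plates, were treated the following day by pin tool with a single drug or with five library-drug doses (not always all listed) in √10 steps on top of a fixed anchor-drug dose. Cells were fixed and nuclei stained in one step after 5 days, and nuclei were counted. Relative viability is the nuclei count for treated wells divided by that for vehicle wells, reported as medians of duplicate plates.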

EKVX = system: EKVX
How it was run: as §1

NCI-H2405 = system: NCI-H2405
How it was run: as §1

NCI-H1355 = system: NCI-H1355
How it was run: as §1

NCI-H1792 = system: NCI-H1792
How it was run: as §1

NCI-H838 = system: NCI-H838
How it was run: as §1

LC-2-ad = system: LC-2-ad
How it was run: as §1

HARA = system: HARA
How it was run: as §1

NCI-H661 = system: NCI-H661
How it was run: as §1

SW 1573 = system: SW 1573
How it was run: as §1

COR-L23 = system: COR-L23
How it was run: as §1

UMC-11 = system: UMC-11
How it was run: as §1

EMC-BAC-2 = system: EMC-BAC-2
How it was run: as §1

HCC-15 = system: HCC-15
How it was run: as §1

NCI-H1755 = system: NCI-H1755
How it was run: as §1

NCI-H522 = system: NCI-H522
How it was run: as §1

NCI-H23 = system: NCI-H23
How it was run: as §1

H3255 = system: H3255
How it was run: as §1

NCI-H2126 = system: NCI-H2126
How it was run: as §1

NCI-H520 = system: NCI-H520
How it was run: as §1

NCI-H1915 = system: NCI-H1915
How it was run: as §1

SW 900 = system: SW 900
How it was run: as §1

RERF-LC-KJ = system: RERF-LC-KJ
How it was run: as §1

LCLC-97TM1 = system: LCLC-97TM1
How it was run: as §1

NCI-H3122 = system: NCI-H3122
How it was run: as §1

Work on `Nc1cccc2c1CN(C1CCC(=O)NC1=O)C2=O` (stereo not given) [Lenalidomide] + Cc1nc(Nc2ncc(C(=O)Nc3c(C)cccc3Cl)s2)cc(N2CCN(CCO)CC2)n1 [Dasatinib] (partner 0.075 µM) yielded a relative viability (HCC-827; first compound 0.253 µM) of 0.291, a relative viability (HCC-827; first compound 0.8 µM) of 0.416 and a relative viability (HCC-827; first compound 2.53 µM) of 0.341. It also gave a relative viability (HCC-827; first compound 8 µM) of 0.312, a relative viability (EKVX; first compound 0.253 µM) of 0.613 and a relative viability (EKVX; first compound 0.8 µM) of 0.495. For the same compound, the relative viability (EKVX; first compound 2.53 µM) was 0.575, the relative viability (EKVX; first compound 8 µM) was 0.499 and the relative viability (NCI-H2405; first compound 0.253 µM) was 0.23. It also gave a relative viability (NCI-H2405; first compound 0.8 µM) of 0.185, a relative viability (NCI-H2405; first compound 2.53 µM) of 0.217 and a relative viability (NCI-H2405; first compound 8 µM) of 0.21. It also gave a relative viability (NCI-H1355; first compound 0.253 µM) of 0.701, a relative viability (NCI-H1355; first compound 2.53 µM) of 0.744 and a relative viability (NCI-H1355; first compound 8 µM) of 0.403. The relative viability (NCI-H1792; first compound 0.253 µM) was 0.8, the relative viability (NCI-H1792; first compound 0.8 µM) was 0.69 and the relative viability (NCI-H1792; first compound 2.53 µM) was 0.893. The relative viability (NCI-H1792; first compound 8 µM) was 0.865, the relative viability (NCI-H838; first compound 0.253 µM) was 0.368 and the relative viability (NCI-H838; first compound 0.8 µM) was 0.301. The relative viability (NCI-H838; first compound 2.53 µM) was 0.302, the relative viability (NCI-H838; first compound 8 µM) was 0.252 and the relative viability (LC-2-ad; first compound 0.253 µM) was 0.49. The relative viability (LC-2-ad; first compound 2.53 µM) was 0.727, the relative viability (LC-2-ad; first compound 8 µM) was 0.395 and the relative viability (HARA; first compound 0.253 µM) was 0.3. The relative viability (HARA; first compound 2.53 µM) was 0.293, the relative viability (HARA; first compound 8 µM) was 0.287 and the relative viability (NCI-H661; first compound 0.253 µM) was 0.934. For the same compound, the relative viability (NCI-H661; first compound 0.8 µM) was 0.854, the relative viability (NCI-H661; first compound 2.53 µM) was 0.918 and the relative viability (NCI-H661; first compound 8 µM) was 0.86. The relative viability (SW 1573; first compound 0.253 µM) was 0.637, the relative viability (SW 1573; first compound 0.8 µM) was 0.547 and the relative viability (SW 1573; first compound 2.53 µM) was 0.455. For the same compound, the relative viability (SW 1573; first compound 8 µM) was 0.392, the relative viability (COR-L23; first compound 0.253 µM) was 0.541 and the relative viability (COR-L23; first compound 0.8 µM) was 0.507. The relative viability (COR-L23; first compound 2.53 µM) was 0.63, the relative viability (COR-L23; first compound 8 µM) was 0.569 and the relative viability (UMC-11; first compound 0.253 µM) was 0.452. It also gave a relative viability (UMC-11; first compound 0.8 µM) of 0.456, a relative viability (UMC-11; first compound 2.53 µM) of 0.542 and a relative viability (UMC-11; first compound 8 µM) of 0.43. The relative viability (EMC-BAC-2; first compound 0.253 µM) was 0.319, the relative viability (EMC-BAC-2; first compound 0.8 µM) was 0.28 and the relative viability (EMC-BAC-2; first compound 2.53 µM) was 0.33. For the same compound, the relative viability (EMC-BAC-2; first compound 8 µM) was 0.256, the relative viability (HCC-15; first compound 0.253 µM) was 0.629 and the relative viability (HCC-15; first compound 0.8 µM) was 0.526. The relative viability (HCC-15; first compound 2.53 µM) was 0.816, the relative viability (HCC-15; first compound 8 µM) was 0.527 and the relative viability (NCI-H1755; first compound 0.253 µM) was 0.404. It also gave a relative viability (NCI-H1755; first compound 0.8 µM) of 0.216, a relative viability (NCI-H1755; first compound 2.53 µM) of 0.428 and a relative viability (NCI-H1755; first compound 8 µM) of 0.33. For the same compound, the relative viability (NCI-H522; first compound 0.253 µM) was 1, the relative viability (NCI-H522; first compound 2.53 µM) was 0.749 and the relative viability (NCI-H522; first compound 8 µM) was 0.678. It also gave a relative viability (NCI-H23; first compound 0.253 µM) of 0.857, a relative viability (NCI-H23; first compound 0.8 µM) of 0.543 and a relative viability (NCI-H23; first compound 2.53 µM) of 0.97. For the same compound, the relative viability (NCI-H23; first compound 8 µM) was 0.687, the relative viability (H3255; first compound 0.253 µM) was 0.365 and the relative viability (H3255; first compound 0.8 µM) was 0.32. For the same compound, the relative viability (H3255; first compound 2.53 µM) was 0.34, the relative viability (H3255; first compound 8 µM) was 0.301 and the relative viability (NCI-H2126; first compound 0.253 µM) was 0.661. It also gave a relative viability (NCI-H2126; first compound 0.8 µM) of 0.559, a relative viability (NCI-H2126; first compound 2.53 µM) of 0.678 and a relative viability (NCI-H2126; first compound 8 µM) of 0.479. The relative viability (NCI-H520; first compound 0.253 µM) was 0.188, the relative viability (NCI-H520; first compound 0.8 µM) was 0.192 and the relative viability (NCI-H520; first compound 2.53 µM) was 0.235. The relative viability (NCI-H520; first compound 8 µM) was 0.159, the relative viability (NCI-H1915; first compound 0.253 µM) was 0.321 and the relative viability (NCI-H1915; first compound 0.8 µM) was 0.329. It also gave a relative viability (NCI-H1915; first compound 2.53 µM) of 0.301, a relative viability (NCI-H1915; first compound 8 µM) of 0.245 and a relative viability (SW 900; first compound 0.253 µM) of 0.498. The relative viability (SW 900; first compound 2.53 µM) was 0.606, the relative viability (SW 900; first compound 8 µM) was 0.828 and the relative viability (RERF-LC-KJ; first compound 0.253 µM) was 0.777. It also gave a relative viability (RERF-LC-KJ; first compound 0.8 µM) of 0.746, a relative viability (RERF-LC-KJ; first compound 2.53 µM) of 0.828 and a relative viability (RERF-LC-KJ; first compound 8 µM) of 0.793. For the same compound, the relative viability (LCLC-97TM1; first compound 0.253 µM) was 0.634, the relative viability (LCLC-97TM1; first compound 0.8 µM) was 0.939 and the relative viability (LCLC-97TM1; first compound 2.53 µM) was 0.909. For the same compound, the relative viability (LCLC-97TM1; first compound 8 µM) was 0.886, the relative viability (NCI-H3122; first compound 0.253 µM) was 0.897 and the relative viability (NCI-H3122; first compound 0.8 µM) was 0.991. The relative viability (NCI-H3122; first compound 2.53 µM) was 0.746 and the relative viability (NCI-H3122; first compound 8 µM) was 0.677.
